Assay results reported in patent publication US8962322B2, “Enhancers of induced pluripotent stem cell reprogramming” (City of Hope, priority 2012, dated 2015).

Assays:
OCT4 promoter = assay: Bisulfite genomic sequencing of OCT4 promoter in IMR90 fibroblasts; format: cell-based, human; details: IMR90 fibroblasts treated for two days
Procedure: To uncover the mechanism of OAC 1-mediated improvement of reprogramming efficiency, it was tested whether OAC 1 functions through regulation of DNA methylation status on the endogenous Oct4 promoter. Human IMR90 fibroblast cells were treated with OAC1 or vehicle control for two days.
Bisulfite Genomic Sequencing: Genomic DNA was isolated from human IMR90 fibroblasts, MEFs, mouse ESCs, 4F+OAC1 and 4F+OAC2-iPSCs by digestion with proteinase K, followed by phenolchloroform extraction and ethanol precipitation. Bisulfite conversion of genomic DNAs was carried out using the EZ DNA Methylation-Gold kit (Zymo Research) according to manufacturer's instruction. The bisulfite-modified DNA was then used as a template for PCR to amplify the promoter regions of Oct4 and Nanog using PCR primers for human OCT4 (1), mouse Oct4 (52) and Nanog (2). The amplified products were cloned into the pCR2.1-TOPO cloning vector (Invitrogen), and 10 randomly selected clones were sequenced with T7 or M13R primers.

[1] = test system: β-catenin-responsive reporter gene Topflash; assay: Topflash luciferase reporter assay in CV1 cells (Wnt signaling); format: cell-based; details: 1 μM OAC1 or 2 μM BIO, 48 hr
Procedure: Whether OAC1 regulates major signaling pathways that are critical for embryonic stem cell pluripotency was investigated. […] CV1 cells were transfected with the β-catenin-responsive reporter gene Topflash, and the transfected cells were treated with vehicle control or OAC1 (FIG. 6C). The glycogen synthase kinase 3β (GSK3β) inhibitor BIO was included as a positive control (42).
AzaC, 25 μg/ml Vc, 10 nM Am580, 5 μM tranylcypromine, and 0.5 mM VPA. Luciferase reporter assays were performed as described (51) 24 hr after compound treatment or at indicated time points. For Topflash reporter assays, 0.2 μg β-catenin-responsive Topflash reporter gene plasmid was introduced into CV1 cells using trasfection (Bio-Rad). Compounds were added 6 hr after transfection. Luciferase activity was measured 48 hr after compound treatment using the Glo Luciferase Assay System (Promega).

human Nanog promoter = assay: Nanog-luc luciferase reporter assay (stably transfected CV1 cells); format: cell-based
luciferase = luciferase (Photinus pyralis, UniProt P08659); details: cited from earlier work
Chain of luciferase (P08659 whole entry): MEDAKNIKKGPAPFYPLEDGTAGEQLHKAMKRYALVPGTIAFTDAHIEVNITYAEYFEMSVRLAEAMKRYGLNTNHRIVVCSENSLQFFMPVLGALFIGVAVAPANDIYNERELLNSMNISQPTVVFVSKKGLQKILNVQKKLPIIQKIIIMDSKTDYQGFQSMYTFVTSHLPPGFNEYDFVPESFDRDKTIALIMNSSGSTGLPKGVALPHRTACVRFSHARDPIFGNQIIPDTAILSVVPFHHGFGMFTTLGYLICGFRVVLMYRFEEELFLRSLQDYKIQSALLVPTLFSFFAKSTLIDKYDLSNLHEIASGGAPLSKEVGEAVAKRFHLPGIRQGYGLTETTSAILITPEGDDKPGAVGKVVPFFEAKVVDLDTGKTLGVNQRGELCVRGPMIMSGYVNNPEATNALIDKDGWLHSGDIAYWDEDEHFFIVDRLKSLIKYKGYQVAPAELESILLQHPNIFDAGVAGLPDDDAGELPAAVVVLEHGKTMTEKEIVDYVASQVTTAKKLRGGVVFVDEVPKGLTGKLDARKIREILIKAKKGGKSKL

[2] = test system: mouse embryonic fibroblasts (MEFs); assay: iPSC derivation from 4F (OSKM)-transduced MEFs in mouse ESC media; format: cell-based
Procedure: The generation of iPSCs is a gradual process with relatively low efficiency. Since Oct4 is central to the reprogramming process (35, 36, 38), it was hypothesized that compounds that activate Oct4 transcription may facilitate iPSC generation by enhancing reprogramming efficiency. Reprogramming of mouse embryonic fibroblasts (MEFs) was performed with the 4F reprogramming quartet Oct4, Sox2, Klf4, and c-Myc, along with solvent control, OAC1 or its structural analogs OAC2 and OAC3. The same number of starting MEFs and the same viral stocks were used for each treatment. Two days after viral transduction, the 4F-transduced cells were seeded onto feeder cells in mouse ESC culture media, and this day was designated as day 0 (FIG. 2D). Compound treatment started on day 0 and lasted for 7 days. By counting the number of clones with ESC-like morphology at day 18, both OAC1 and its analogs OAC2 and OAC3 enhanced the 4F-induced reprogramming efficiency considerably. The number of colonies with ESC-like morphology (FIG. 2E) increased 2-fold or more in 4F plus OAC (4F+OAC) treatment, compared to the 4F treatment alone (FIG. 2F, Table 3).
iPSC Derivation in Mouse ESC Media: OG2/R26MEFs were seeded onto […] at the density of 4×10^4 cells per well in DMEM medium with 10% FBS, 0.1 mM non-essential amino acids (NEAA), and 0.1 mM L-glutamine, 24 hr before transduction. Freshly concentrated viruses of the four factors, Oct4, Sox2, c-Myc, and Klf4, were added to the cells. Two days after viral infection, the viral-transduced OG2/R26MEFs were split into new 6-well plates with irradiated MEF feeder cells and cultured in mouse ESC culture medium containing 15% ESC qualified FBS, 2 mM L-glutamine, 0.1 mM 2-mercaptoethanol, 0.1 mM NEAA, 1 mM sodium pyruvate and 1000 U/ml of leukemia inhibitory factor (LIF), and this day was defined as day 0. 1 μM of each compound (OAC1, OAC2, and OAC3) was added to the 4F-transduced cells at day 0 and treatment was continued for 1 week. When iPSC colonies emerged, these colonies were picked for expansion on irradiated MEF feeders in mouse ESC medium.

O=C(Nc1cc2cc[nH]c2cn1)c1ccccc1 [OAC1, N-(1H-6-azaindol-5-yl)benzamide]
OCT4 promoter methylation status versus DMSO (OCT4 promoter): no significant difference
effect on Topflash reporter activity [1]: no effect
activation of Nanog-luc at 50 nM (human Nanog promoter; 50 nM): substantial activation
fold induction at 1 µM (human Nanog promoter; Chlorocebus aethiops, CV-1, compound at 1 μM, Nanog-luc cells, triplicates): 4.5
induction of Nanog-luc, comparison with known reprogramming enhancers (in words) (human Nanog promoter; OAC1 1 μM, BIO 2 μM, BIX 2 μM, AzaC 2 μM, Vc 25 μg/ml, Am580 10 nM, tranylcypromine 5 μM, VPA 0.5 mM, two days): potent induction
activation of human Nanog reporter (in words) (human Nanog promoter; triplicate luciferase reporter assays): considerable activation
inhibition in ATLAS assay (luciferase): no inhibition
advance of the appearance of putative iPSC colonies compared to 4F only reprogramming ([2]; 4F+OAC): about three to four
Colony numbers ([2]; MEFs in mouse ESC media, OSKM, seeding 3 × 10^4, day 18, 1 μM compound): 130
Reprogramming efficiency ([2]; MEFs in mouse ESC media, OSKM, seeding 3 × 10^4, day 18, colony numbers divided by seeding cell numbers): 0.43%
